According to patent US9540343B2 (Gilead Sciences, Inc., priority 2011, dated 2017):

How the values were obtained:
[1] = test system: HIV-IIIb; assay: Test A: Antiviral assay in MT4 cells; format: cell-based, HIV-1; conditions: Human immunodeficiency virus 1, IIIB, MT4, 120 h, read-out: % inhibition at 2 μM, percent inhibition of virus-induced cell killing, from dose response curve at 2 uM drug; MT-4 cells infected with HIV-IIIb, 5 days, CellTiter-Glo
[2] = in vitro; conditions: human, uninfected MT-4 cells, CC50 (nM), same protocol as Test A, CellTiter-Glo
Summary of the method: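 Cytoprotection read-out: CellTiter-Glo chemiluminescence after 5 days at 37 °C of HIV-IIIb-infected MT-4 cells (m.o.i. 0.003) with compound in 10-point 3-fold dilutions, quadruplicate, 10% FBS. Cytotoxicity (CC50) measured identically without virus.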

| Structure (SMILES) | inhibition at 2 µM [1] [%] | CC50 at 5 days [2] [nM] |
| --- | --- | --- |
| NC(=O)c1cc(-c2cccnc2[C@H](Cc2cc(F)cc(F)c2)NC(=O)Cn2nc(C(=O)O)c3c2C2CCC3C2)ccc1F (stereo partly drawn) [Example 409, (S)-5-(2-(2-(3,5-difluorophenyl)-1-(2-(4,5,6,7-tetrahydro-3-carboxy-4,7-(methano)indazol-1-yl)acetamido)ethyl)pyridin-3-yl)-2-fluorobenzamide] | 0 | > 53200 |
| CCOc1ccc(-c2cccnc2[C@H](Cc2cc(F)cc(F)c2)NC(=O)Cn2nc(C(F)F)c3c2C(F)(F)C2CC32)cc1 (stereo partly drawn) [Example 247, 2-(3-(difluoromethyl)-5,5-difluoro-3b,4,4a,5-tetrahydro-1H-cyclopropa[3,4]cyclopenta[1,2-c]pyrazol-1-yl)-N—((S)-2-(3,5-difluorophenyl)-1-(3-(4-ethoxyphenyl)pyridin-2-yl)ethyl)acetamide] | 39 | 26300 |
| O=C1Cc2c(cccc2-c2cccnc2[C@H](Cc2cc(F)cc(F)c2)NC(=O)Cn2nc(C(F)F)c3c2C(F)(F)CCC3(F)F)N1 [Example 489D, (S)-2-(3-(difluoromethyl)-4,4,7,7-tetrafluoro-4,5,6,7-tetrahydro-1H-indazol-1-yl)-N-(2-(3,5-difluorophenyl)-1-(3-(2-oxoindolin-4-yl)pyridin-2-yl)ethyl)acetamide] | 97 | 20800 |
| CS(=O)(=O)n1cc(CC(=O)N[C@@H](Cc2cc(F)cc(F)c2)c2ncccc2-c2ccc(F)c(C(N)=O)c2)c2cc(F)ccc21 [Example 444, (S)-5-(2-(2-(3,5-difluorophenyl)-1-(2-(5-fluoro-1-(methylsulfonyl)-1H-indol-3-yl)acetamido)ethyl)pyridin-3-yl)-2-fluorobenzamide] | 23 | 15500 |
| Cc1cc(C(F)(F)F)nn1CC(=O)N[C@@H](Cc1cc(F)cc(F)c1)c1ncccc1-c1ccc(F)c(C(N)=O)c1 [Example 385, (S)-5-(2-(2-(3,5-difluorophenyl)-1-(2-(5-methyl-3-(trifluoromethyl)-1H-pyrazol-1-yl)acetamido)ethyl)pyridin-3-yl)-2-fluorobenzamide] | 40 | > 53200 |
| N#Cc1nn(CC(=O)N[C@@H](Cc2cc(F)cc(F)c2)c2ncccc2-c2ccc(F)c(C(N)=O)c2)c2c1C1CC1C2(F)F (stereo partly drawn) [Example 254, 5-(2-((1S)-1-(2-(3-cyano-5,5-difluoro-3b,4,4a,5-tetrahydro-1H-cyclopropa[3,4]cyclopenta[1,2-c]pyrazol-1-yl)acetamido)-2-(3,5-difluorophenyl)ethyl)pyridin-3-yl)-2-fluorobenzamide] | 91 | 16600 |
| O=C(Cn1nc(C(F)F)c2c1C(F)(F)C1CC21)N[C@@H](Cc1cc(F)cc(F)c1)c1ncccc1-c1ccc2cccnc2c1 (stereo partly drawn) [Example 97, (S)—N-(1-(3-(quinoline-7-yl)-pyridin-2-yl)-2-(3,5-difluorophenyl)ethyl)-2-(3-(difluoromethyl)-5,6-dihydro-4,5-(methano)-6,6-difluoro-cyclopenta[c]pyrazol-1(4H)-yl)acetamide] | 27 | 33900 |
| N#Cc1nn(CC(=O)N[C@@H](Cc2cc(F)cc(F)c2)c2ncccc2-c2ccc(F)c(C(N)=O)c2)cc1Br [Example 359, (S)-5-(2-(1-(2-(4-bromo-3-cyano-1H-pyrazol-1-yl)acetamido)-2-(3,5-difluorophenyl)ethyl)pyridin-3-yl)-2-fluorobenzamide] | 2 | 25300 |
| CC(C)c1cc(C(C)C)n(CC(=O)N[C@@H](Cc2cc(F)cc(F)c2)c2ncccc2-c2ccc(F)c(C(N)=O)c2)n1 [Example 538, (S)-5-(2-(2-(3,5-difluorophenyl)-1-(2-(3,5-diisopropyl-1H-pyrazol-1-yl)acetamido)ethyl)pyridin-3-yl)-2-fluorobenzamide] | 14 | 23300 |
| COc1ccc2c(c1)C(CC(=O)N[C@@H](Cc1cc(F)cc(F)c1)c1ncccc1-c1ccc(F)c(C(N)=O)c1)C(=O)N2 (stereo partly drawn) [Example 202, 5-(2-((1S)-2-(3,5-difluorophenyl)-1-(2-(5-methoxy-2-oxoindolin-3-yl)acetamido)ethyl)pyridin-3-yl)-2-fluorobenzamide] | 1 | > 53200 |
| NC(=O)c1cc(-c2cccnc2[C@H](Cc2cc(F)cc(F)c2)NC(=O)Cc2c[nH]c3cc(F)c(F)cc23)ccc1F [Example 533E, (S)-5-(2-(1-(2-(5,6-difluoro-1H-indol-3-yl)acetamido)-2-(3,5-difluorophenyl)ethyl)pyridin-3-yl)-2-fluorobenzamide] | 142 | 19300 |
| Cc1ccccc1-c1cccnc1[C@H](Cc1cc(F)cc(F)c1)NC(=O)Cn1nc(C(F)(F)F)c2c1CCCC2 [Example 27, (S)—N-(2-(3,5-difluorophenyl)-1-(3-o-tolylpyridin-2-yl)ethyl)-2-(3-(trifluoromethyl)-4,5,6,7-tetrahydro-1H-indazol-1-yl)acetamide] | 72 | 12000 |
| O=C(Cn1nc(C(F)F)c2c1C(F)(F)CCC2(F)F)N[C@@H](Cc1cc(F)cc(F)c1)c1ncncc1-c1ccc(Cl)cc1 [Example 524D, (S)—N-(1-(5-(4-chlorophenyl)pyrimidin-4-yl)-2-(3,5-difluorophenyl)ethyl)-2-(3-(difluoromethyl)-4,4,7,7-tetrafluoro-4,5,6,7-tetrahydro-1H-indazol-1-yl)acetamide] | 78 | 8530 |
| NC(=O)c1cc(-c2cccnc2[C@H](Cc2cc(F)cc(F)c2)NC(=O)Cc2c[nH]c3c(F)cc(F)cc23)ccc1F [Example 530E, (S)-5-(2-(1-(2-(5,7-difluoro-1H-indol-3-yl)acetamido)-2-(3,5-difluorophenyl)ethyl)pyridin-3-yl)-2-fluorobenzamide] | 55 | 15300 |
| NC(=O)c1cc(-c2cccnc2[C@H](Cc2cc(F)cc(F)c2)NC(=O)Cn2ncc3c2CCCC3)ccc1F [Example 471, (S)-5-(2-(2-(3,5-difluorophenyl)-1-(2-(4,5,6,7-tetrahydro-1H-indazol-1-yl)acetamido)ethyl)pyridin-3-yl)-2-fluorobenzamide] | 62 | > 53200 |
| NC(=O)c1cc(-c2cccnc2[C@H](Cc2cccc(F)c2)NC(=O)Cn2nc(C(F)(F)F)c3c2CCCC3)ccc1F [Example 229, (S)-2-fluoro-5-(2-(2-(3-fluorophenyl)-1-(2-(3-(trifluoromethyl)-4,5,6,7-tetrahydro-1H-indazol-1-yl)acetamido)ethyl)pyridin-3-yl)benzamide] | 95 | 18600 |
| NC(=O)c1cc(-c2cccnc2[C@H](Cc2cc(F)cc(F)c2)NC(=O)COc2ccnc(Cl)c2)ccc1F [Example 332B, (S)-5-(2-(1-(2-(2-chloropyridin-4-yloxy)acetamido)-2-(3,5-difluorophenyl)ethyl)pyridin-3-yl)-2-fluorobenzamide] | 2 | 40000 |
| CCc1c(Br)c(C(F)(F)F)nn1CC(=O)N[C@@H](Cc1cc(F)cc(F)c1)c1ncccc1-c1ccc(F)c(C(N)=O)c1 [Example 58D, (S)-5-(2-(1-(2-(4-bromo-5-ethyl-3-(trifluoromethyl)-1H-pyrazol-1-yl)acetamido)-2-(3,5-difluorophenyl)ethyl)pyridin-3-yl)-2-fluorobenzamide] | 14 | 10000 |
| CN1CCc2c(C(F)(F)F)nn(CC(=O)N[C@@H](Cc3cc(F)cc(F)c3)c3ncccc3-c3ccc(F)c(C(N)=O)c3)c2C1 [Example 388, (S)-5-(2-(2-(3,5-difluorophenyl)-1-(2-(6-methyl-3-(trifluoromethyl)-4,5,6,7-tetrahydro-1H-pyrazolo[3,4-c]pyridin-1-yl)acetamido)ethyl)pyridin-3-yl)-2-fluorobenzamide] | 54 | > 53200 |
| N#Cc1nn(CC(=O)N[C@@H](Cc2cc(F)cc(F)c2)c2ncccc2-c2ccc(F)c(C(N)=O)c2)cc1C1CC1 [Example 337, (S)-5-(2-(1-(2-(3-cyano-4-cyclopropyl-1H-pyrazol-1-yl)acetamido)-2-(3,5-difluorophenyl)ethyl)pyridin-3-yl)-2-fluorobenzamide] | 20 | 27900 |
| O=C(Cc1c[nH]c2ccc(=O)[nH]c12)N[C@@H](Cc1cc(F)cc(F)c1)c1ncccc1-c1ccc(Cl)cc1 [Example 37, (S)—N-(1-(3-(4-chlorophenyl)pyridin-2-yl)-2-(3,5-difluorophenyl)ethyl)-2-(5-oxo-4,5-dihydro-1H-pyrrolo[3,2-b]pyridin-3-yl)acetamide] | 84 | 34200 |
| NC(=O)c1cc(-c2cccnc2[C@H](Cc2cc(F)cc(F)c2)NC(=O)Cc2c[nH]c3ccc(O)cc23)ccn1 [Example 310C, (S)-2-(2-(3,5-difluorophenyl)-1-(2-(5-hydroxy-1H-indol-3-yl)acetamido)ethyl)-3,4′-bipyridine-2′-carboxamide] | 97 | > 53000 |
| CC(C)CC(C(=O)N[C@@H](Cc1cc(F)cc(F)c1)c1ncccc1-c1ccc(F)c(C(N)=O)c1)n1ccc(C(F)(F)F)n1 (single isomer, unassigned) [Example 581D] | 6 | 10600 |
| O=C(Cc1c[nH]c2ccc(O)cc12)N[C@@H](Cc1cc(F)cc(F)c1)c1ncccc1C#CC1CC1 [Example 53, (S)—N-(1-(3-(cyclopropylethynyl)pyridin-2-yl)-2-(3,5-difluorophenyl)ethyl)-2-(5-hydroxy-1H-indol-3-yl)acetamide] | 33 | 28300 |
| O=C(Cc1c[nH]c2ccc(O)cc12)N[C@@H](Cc1cc(F)cc(F)c1)c1ncccc1-c1cccc(-c2nnn[nH]2)c1 [Example 49] | 0 | 562 |
